Test results taken from PubChem BioAssay (NCI).
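These data come from cells grown in 96-well plates and exposed to compound for 48 hours at five concentrations. TGI: concentration producing complete growth inhibition.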

Legend:
Assay in all cases: growth of human tumour cells (NCI), 48 h
[1] = tested on: BT-549 breast
[2] = tested on: HCT-116 colon
[3] = tested on: KM12 colon
[4] = tested on: PC-3 prostate
[5] = tested on: SK-MEL-2 melanoma
[6] = tested on: T-47D breast
[7] = tested on: UO-31 renal

Compound `O=c1[nH]c(NCCCCCO)nc2nc[nH]c12` has a TGI [1] greater than 100 µM, a TGI [2] greater than 100 µM and a TGI [3] greater than 100 µM. The TGI [4] was greater than 100 µM, the TGI [5] was greater than 100 µM and the TGI [6] was greater than 100 µM. It also gave a TGI [7] greater than 100 µM.
With `CC1=NN(C(=O)CC(=O)Nc2cccc(C)c2)C(=O)C1N=Nc1ccc(C(=O)O)cc1` (centres undefined) the TGI [1] was greater than 100 µM, the TGI [2] was greater than 100 µM and the TGI [3] was greater than 100 µM. For the same compound, the TGI [4] was greater than 100 µM, the TGI [5] was greater than 100 µM and the TGI [6] was greater than 100 µM. For the same compound, the TGI [7] was greater than 100 µM.
Work on `N=C(N)c1ccc(N=Nc2c(O)c(C(=O)Nc3ccccc3)cc3ccccc23)cc1` yielded a TGI [1] greater than 100 µM, a TGI [2] of 12.5 µM and a TGI [3] of 29.9 µM. It also gave a TGI [4] greater than 89.2 µM, a TGI [5] greater than 100 µM and a TGI [6] of 38.2 µM. It also gave a TGI [7] greater than 100 µM.
`N#Cc1cc2c(n(C3OC(CO)C(O)C(O)C3O)c1=S)CCC2` (centres undefined) showed a TGI [1] greater than 100 µM, a TGI [2] greater than 100 µM and a TGI [3] greater than 100 µM. It also gave a TGI [4] greater than 100 µM, a TGI [5] greater than 100 µM and a TGI [6] greater than 100 µM. It also gave a TGI [7] greater than 100 µM.
For `CC1=NN(c2cc(Cl)c(S(=O)(=O)O)cc2Cl)C2(C1)C(Cl)C(=O)N2c1nc2ccccc2s1` (centres undefined), the TGI [1] was greater than 100 µM, the TGI [2] was greater than 100 µM and the TGI [3] was greater than 100 µM. For the same compound, the TGI [4] was greater than 100 µM, the TGI [5] was greater than 100 µM and the TGI [6] was greater than 100 µM. It also gave a TGI [7] of 76.5 µM.
In the case of `Clc1ccc(-c2nn3c(COc4ccc(OCc5nnc6sc(-c7ccc(Cl)cc7)nn56)c(Cl)c4)nnc3s2)cc1`, the TGI [1] is reported as 52.7 µM, the TGI [2] is reported as greater than 100 µM and the TGI [3] is reported as greater than 100 µM. For the same compound, the TGI [4] was greater than 100 µM, the TGI [5] was greater than 100 µM and the TGI [6] was greater than 100 µM. For the same compound, the TGI [7] was 42.1 µM.
`C/C(=C\C(=O)O)C(=O)N(C)c1ccccc1I` gave a TGI [2] greater than 100 µM, a TGI [3] greater than 100 µM and a TGI [4] greater than 100 µM. The TGI [5] was greater than 100 µM, the TGI [6] was greater than 100 µM and the TGI [7] was greater than 100 µM.
In the case of `CN(C)CCCNC(=O)N/N=C/c1ccccn1`, the TGI [2] is reported as greater than 10 µM, the TGI [3] is reported as greater than 10 µM and the TGI [4] is reported as greater than 10 µM. For the same compound, the TGI [6] was greater than 10 µM and the TGI [7] was greater than 10 µM.
`COc1cc2ccc(C(C)NCC#N)cc2cc1OC` (centres undefined) gave a TGI [1] greater than 100 µM, a TGI [2] greater than 100 µM and a TGI [3] greater than 100 µM. For the same compound, the TGI [4] was greater than 100 µM, the TGI [5] was greater than 100 µM and the TGI [6] was greater than 100 µM. It also gave a TGI [7] greater than 100 µM.
Compound `Fc1cccc(C2ON=C(c3ccccc3)N2C23CC4CC(CC(C4)C2)C3)c1` (centres undefined) has a TGI [1] greater than 10 µM, a TGI [2] greater than 10 µM and a TGI [3] greater than 10 µM. It also gave a TGI [4] greater than 10 µM, a TGI [5] greater than 10 µM and a TGI [6] greater than 10 µM.
Work on `Cc1cc(C)n(C(=CC(=O)C(Cl)Cl)n2nc(C)cc2C)n1` yielded a TGI [1] of 16.1 µM, a TGI [2] of 6.81 µM and a TGI [3] of 24 µM. It also gave a TGI [4] of 29.5 µM, a TGI [5] of 25.7 µM and a TGI [6] of 28.6 µM. The TGI [7] was 27.6 µM.
`FC(F)(Sc1ncccn1)c1nc2ccccc2o1` gave a TGI [1] greater than 100 µM, a TGI [2] greater than 100 µM and a TGI [3] greater than 100 µM. It also gave a TGI [4] greater than 100 µM, a TGI [5] greater than 100 µM and a TGI [6] greater than 100 µM. It also gave a TGI [7] greater than 100 µM.
For `CC1(O)CC23CC(O)C4(O)C(CC(O)C4(C)C)C(C)(O)C2CCC1C3O` (centres undefined), the TGI [1] was greater than 100 µM, the TGI [2] was greater than 100 µM and the TGI [3] was greater than 100 µM. For the same compound, the TGI [4] was greater than 100 µM, the TGI [5] was greater than 100 µM and the TGI [6] was greater than 100 µM. For the same compound, the TGI [7] was greater than 100 µM.
With `COc1cc(-c2cc(OC)c(OC)c3ccc(Br)cc23)c2cc(Br)ccc2c1OC` the TGI [2] was 24.9 µM, the TGI [4] was 58 µM and the TGI [5] was 56 µM. It also gave a TGI [6] of 95.4 µM and a TGI [7] of 73.7 µM.
Work on `Cc1c(-c2ccccc2)oc(=O)c2ccccc12` yielded a TGI [1] of 39.2 µM, a TGI [2] of 56.4 µM and a TGI [3] of 51.9 µM. For the same compound, the TGI [4] was 72.1 µM, the TGI [5] was 38.5 µM and the TGI [6] was 75.7 µM. It also gave a TGI [7] of 43.7 µM.
For `N#CC(C#N)=C/C=C/c1ccccc1[N+](=O)[O-]`, the TGI [2] was 3.67 µM, the TGI [3] was greater than 10 µM and the TGI [4] was greater than 10 µM. For the same compound, the TGI [5] was greater than 10 µM, the TGI [6] was greater than 10 µM and the TGI [7] was greater than 10 µM.
Work on `COc1ccccc1-c1cc(=O)c2cccnc2[nH]1` yielded a TGI [1] greater than 100 µM, a TGI [2] greater than 100 µM and a TGI [3] greater than 100 µM. For the same compound, the TGI [4] was greater than 100 µM, the TGI [5] was greater than 100 µM and the TGI [6] was greater than 100 µM. The TGI [7] was greater than 100 µM.
For `CSC1=C(C)C(/C=N/Nc2ccc([N+](=O)[O-])cc2)=C(C)N(c2ccccc2)S1(=O)=O`, the TGI [1] was greater than 100 µM, the TGI [2] was greater than 100 µM and the TGI [3] was greater than 100 µM. It also gave a TGI [4] greater than 100 µM, a TGI [5] greater than 100 µM and a TGI [6] greater than 100 µM. The TGI [7] was greater than 100 µM.
With `CCCCCCCCCCCCCCCCOC[C@H](COC(c1ccccc1)(c1ccccc1)c1ccccc1)O[P+](=S)OC` (some centres undefined) the TGI [1] was greater than 100 µM, the TGI [2] was greater than 100 µM and the TGI [3] was greater than 100 µM. The TGI [4] was greater than 100 µM, the TGI [5] was greater than 100 µM and the TGI [6] was greater than 100 µM. The TGI [7] was greater than 100 µM.
Compound `COc1cc(/C=C2\C(=O)N(c3ccc(Cl)cc3)C(c3ccccc3)S2(=O)=O)cc(OC)c1OC` (centres undefined) has a TGI [1] greater than 100 µM, a TGI [2] greater than 100 µM and a TGI [3] of 99.3 µM. It also gave a TGI [4] greater than 100 µM, a TGI [5] greater than 100 µM and a TGI [6] greater than 100 µM. It also gave a TGI [7] greater than 100 µM.
In the case of `COc1ccc(/C=C2\N=C3N(Cc4ccccc4)C=C(N)N3C2=O)cc1`, the TGI [1] is reported as greater than 100 µM, the TGI [2] is reported as greater than 100 µM and the TGI [3] is reported as greater than 100 µM. It also gave a TGI [4] greater than 100 µM, a TGI [5] greater than 100 µM and a TGI [6] greater than 100 µM. It also gave a TGI [7] greater than 100 µM.
`O=C(c1ccccc1)C1C(c2ccccc2[N+](=O)[O-])N1C1CCCCC1` (centres undefined) gave a TGI [1] of 32.3 µM, a TGI [2] of 8.6 µM and a TGI [3] of 25.2 µM. For the same compound, the TGI [4] was 15.9 µM, the TGI [5] was 18.6 µM and the TGI [6] was 7.57 µM. For the same compound, the TGI [7] was 20.3 µM.
`CCOC(=O)/C(=C/c1cn(C(C)=O)c2ccccc12)P(=O)(OC)OC` gave a TGI [2] greater than 100 µM, a TGI [4] greater than 100 µM and a TGI [5] greater than 100 µM. It also gave a TGI [6] of 60.5 µM.
In the case of `Clc1ccc(C2=CC(c3ccccc3)N3C(=N[C@H]4CCCC[C@@H]43)N2)cc1` (some centres undefined), the TGI [1] is reported as 21.3 µM, the TGI [2] is reported as 11.6 µM and the TGI [3] is reported as 8.79 µM. The TGI [4] was 19.5 µM, the TGI [5] was 27.2 µM and the TGI [6] was 21.6 µM. The TGI [7] was 22.9 µM.
With `C=C(CCC(=O)N(CCc1c[nH]c2ccccc12)C(=O)c1ccccc1CSCC)C(=O)OC` the TGI [1] was greater than 100 µM, the TGI [2] was greater than 100 µM and the TGI [3] was greater than 100 µM. It also gave a TGI [4] greater than 100 µM, a TGI [5] greater than 100 µM and a TGI [6] greater than 100 µM. For the same compound, the TGI [7] was greater than 100 µM.
`CN=C1C=C(/N=C2/C=C(N/C(=C\C#N)C(C)(C)O)OC2(C)C)OC1(C)C` was tested, and the TGI [1] was greater than 77.8 µM, the TGI [2] was 69.4 µM and the TGI [3] was greater than 100 µM. It also gave a TGI [4] greater than 100 µM, a TGI [5] greater than 82.8 µM and a TGI [6] greater than 100 µM. The TGI [7] was 82.3 µM.
With `c1csc(-c2cc(-c3ccsc3)cs2)c1` the TGI [1] was greater than 100 µM, the TGI [2] was greater than 100 µM and the TGI [3] was greater than 100 µM. For the same compound, the TGI [4] was greater than 100 µM, the TGI [5] was greater than 100 µM and the TGI [6] was greater than 100 µM. It also gave a TGI [7] greater than 100 µM.
